The data set has as its target Human TNFα (Homo sapiens, UniProt P01375). Put plainly: AlphaLISA competitive inhibition assay of drug recovered from bellows or syringe. For orientation: Bead proximity is the source of the signal in Alpha formats.

The source of these data is US11793420B2, “Ingestible device for delivery of a dispensable substance” (Biora Therapeutics, Inc., priority 2016, dated 2023).

Sequence of Human TNFα (P01375 77-233 limits assumed): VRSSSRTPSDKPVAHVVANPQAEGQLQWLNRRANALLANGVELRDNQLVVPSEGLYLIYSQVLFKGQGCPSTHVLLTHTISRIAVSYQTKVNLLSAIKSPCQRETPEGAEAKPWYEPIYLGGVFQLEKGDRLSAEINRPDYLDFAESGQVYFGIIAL

On to adalimumab [Exemptia], for which, under “after 24 hours (FIG. 86), within the error bars”, the “shift of bellows curves” value is on record as “slight right shift”. Besides, the “IC50 values of the drug dispensed from the bellows versus standard dispensation method” value (bellows vs. standard dispensation method (Table 6)) is listed as “comparable”. For the same substance, the “impact of bellows on drug function” value (silicone or PVC bellows, shelf lives of 4, 24 hours, or 336 hours) is given as “do not negatively impact the drug function”.
